Source: patent US6355799B1, “Substituted benzene compounds, process for their preparation, and herbicidal and defoliant compositions containing them” (ISK Americas Incorporated, priority 1997, dated 2002)

How the values were obtained:
Type in all cases: in vivo
[1] = tested on: redroot pigweed (Amaranthus retroflexus, AMARE); experiment: Pre-emerge test, greenhouse herbicide activity screening; settings: pre-emerge, phytotoxicity rating 0-100 at 14 days after application
Method in brief: (§1)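 Compounds in acetone were track-sprayed at 15-1000 g ai/ha (187 l/ha) on sandy loam pots: pre-emerge one day after seeding, post-emerge at 2-3 leaf stage with 0.25% v/v non-ionic surfactant. Phytotoxicity was rated 14 days later on a 0 (no damage) to 100 (complete death) scale.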

[2] = tested on: barnyardgrass (Echinochloa crus-galli, ECHCG); experiment: as above; settings: pre-emerge, phytotoxicity rating 0-100 at 14 days after application
Method in brief: (§2)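 Compounds in acetone were track-sprayed at 187 l/ha, 15–1000 g ai/ha, onto sandy loam pots. Pre-emerge seeds were sown one day before spraying, with surface watering afterwards. Post-emerge plants were at the 2–3 leaf stage and sprayed with 0.25% v/v non-ionic surfactant. Injury was rated 0–100 at 14 days.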

[3] = tested on: green foxtail (Setaria viridis, SETVI); experiment: as above; settings: pre-emerge, phytotoxicity rating 0-100 at 14 days after application
Method in brief: as §2

[4] = tested on: ivyleaf morningglory (Ipomoea hederacea, IPOHE); experiment: as above; settings: pre-emerge, phytotoxicity rating 0-100 at 14 days after application
Method in brief: as §2

[5] = tested on: johnsongrass (Sorghum halepense, SORHA); experiment: as above; settings: pre-emerge, phytotoxicity rating 0-100 at 14 days after application
Method in brief: as §2

[6] = tested on: lambsquarters (Chenopodium album, CHEAL); experiment: as above; settings: pre-emerge, phytotoxicity rating 0-100 at 14 days after application
Method in brief: as §2

[7] = tested on: large crabgrass (Digitaria sanguinalis, DIGSA); experiment: as above; settings: pre-emerge, phytotoxicity rating 0-100 at 14 days after application
Method in brief: as §2

[8] = tested on: sicklepod (Cassia obtusifolia, CASOB); experiment: as above; settings: pre-emerge, phytotoxicity rating 0-100 at 14 days after application
Method in brief: as §2

[9] = tested on: velvetleaf (Abutilon theophrasti, ABUTH); experiment: as above; settings: pre-emerge, phytotoxicity rating 0-100 at 14 days after application
Method in brief: as §2

[10] = tested on: field corn (Zea mays L., var. Dekalb 535, CORN); experiment: Pre-emerge test, crop safety; settings: crop damage, pre-emerge, phytotoxicity rating 0-100 at 14 days after application
Method in brief: as §1

[11] = tested on: upland rice (Oryza sp., var. Tebonnet, RICE); experiment: Pre-emerge test, crop safety; settings: crop damage, pre-emerge, phytotoxicity rating 0-100 at 14 days after application
Method in brief: as §1

[12] = tested on: barnyardgrass (Echinochloa crus-galli, ECHCG); experiment: Post-emerge test, greenhouse herbicide activity screening; settings: post-emerge, phytotoxicity rating 0-100 at 14 days after application
Method in brief: (§3)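 Sandy loam pots; pre-emerge: sown 1 d pre-spray, surface-watered after, then bottom-watered. Post-emerge: sown 8–21 d before, 2–3 leaf stage, + 0.25% v/v NIS, bottom-watered. Acetone, 187 l/ha track spray, 15–1000 g ai/ha. 0–100 injury score, day 14.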

[13] = tested on: green foxtail (Setaria viridis, SETVI); experiment: as above; settings: post-emerge, phytotoxicity rating 0-100 at 14 days after application
Method in brief: as §3

[14] = tested on: ivyleaf morningglory (Ipomoea hederacea, IPOHE); experiment: as above; settings: post-emerge, phytotoxicity rating 0-100 at 14 days after application
Method in brief: as §3

[15] = tested on: johnsongrass (Sorghum halepense, SORHA); experiment: as above; settings: post-emerge, phytotoxicity rating 0-100 at 14 days after application
Method in brief: as §3

[16] = tested on: lambsquarters (Chenopodium album, CHEAL); experiment: as above; settings: post-emerge, phytotoxicity rating 0-100 at 14 days after application
Method in brief: as §3

[17] = tested on: large crabgrass (Digitaria sanguinalis, DIGSA); experiment: as above; settings: post-emerge, phytotoxicity rating 0-100 at 14 days after application
Method in brief: as §3

[18] = tested on: redroot pigweed (Amaranthus retroflexus, AMARE); experiment: as above; settings: post-emerge, phytotoxicity rating 0-100 at 14 days after application
Method in brief: as §3

[19] = tested on: sicklepod (Cassia obtusifolia, CASOB); experiment: as above; settings: post-emerge, phytotoxicity rating 0-100 at 14 days after application
Method in brief: as §3

[20] = tested on: velvetleaf (Abutilon theophrasti, ABUTH); experiment: as above; settings: post-emerge, phytotoxicity rating 0-100 at 14 days after application
Method in brief: as §3

[21] = tested on: field corn (Zea mays L., var. Dekalb 535, CORN); experiment: Post-emerge test, crop safety; settings: post-emerge, crop damage rating 0-100 at 14 days after application
Method in brief: as §2

[22] = tested on: upland rice (Oryza sp., var. Tebonnet, RICE); experiment: Post-emerge test, crop safety; settings: post-emerge, crop damage rating 0-100 at 14 days after application
Method in brief: as §2

`CCC(=O)Nc1c(Cl)cc(Cl)c(-n2nc(C)n(C(F)F)c2=O)c1N` [Compound 6-19] was tested, and the “Pre-emerge Herbicidal Activity AMARE” value ([1]; rate 63 g ai/ha) was 30, the “Pre-emerge Herbicidal Activity AMARE” value ([1]; rate 250 g ai/ha) was 70 and the “Pre-emerge Herbicidal Activity ECHCG” value ([2]; rate 63 g ai/ha) was 0. For the same compound, the “Pre-emerge Herbicidal Activity ECHCG” value ([2]; rate 250 g ai/ha) was 0, the “Pre-emerge Herbicidal Activity SETVI” value ([3]; rate 63 g ai/ha) was 0 and the “Pre-emerge Herbicidal Activity SETVI” value ([3]; rate 250 g ai/ha) was 10. The “Pre-emerge Herbicidal Activity IPOHE” value ([4]; rate 63 g ai/ha) was 0, the “Pre-emerge Herbicidal Activity IPOHE” value ([4]; rate 250 g ai/ha) was 0 and the “Pre-emerge Herbicidal Activity SORHA” value ([5]; rate 63 g ai/ha) was 0. For the same compound, the “Pre-emerge Herbicidal Activity SORHA” value ([5]; rate 250 g ai/ha) was 0, the “Pre-emerge Herbicidal Activity CHEAL” value ([6]; rate 63 g ai/ha) was 70 and the “Pre-emerge Herbicidal Activity CHEAL” value ([6]; rate 250 g ai/ha) was 90. For the same compound, the “Pre-emerge Herbicidal Activity DIGSA” value ([7]; rate 63 g ai/ha) was 0, the “Pre-emerge Herbicidal Activity DIGSA” value ([7]; rate 250 g ai/ha) was 0 and the “Pre-emerge Herbicidal Activity CASOB” value ([8]; rate 63 g ai/ha) was 0. For the same compound, the “Pre-emerge Herbicidal Activity CASOB” value ([8]; rate 250 g ai/ha) was 0, the “Pre-emerge Herbicidal Activity ABUTH” value ([9]; rate 63 g ai/ha) was 20 and the “Pre-emerge Herbicidal Activity ABUTH” value ([9]; rate 250 g ai/ha) was 50. The “Pre-emerge Herbicidal Activity CORN” value ([10]; rate 63 g ai/ha) was 0, the “Pre-emerge Herbicidal Activity CORN” value ([10]; rate 250 g ai/ha) was 0 and the “Pre-emerge Herbicidal Activity RICE” value ([11]; rate 63 g ai/ha) was 0. The “Pre-emerge Herbicidal Activity RICE” value ([11]; rate 250 g ai/ha) was 0, the “Post-emerge Herbicidal Activity ECHCG” value ([12]; 63 g ai/ha) was 0 and the “Post-emerge Herbicidal Activity ECHCG” value ([12]; 250 g ai/ha) was 0. For the same compound, the “Post-emerge Herbicidal Activity SETVI” value ([13]; 63 g ai/ha) was 0, the “Post-emerge Herbicidal Activity SETVI” value ([13]; 250 g ai/ha) was 0 and the “Post-emerge Herbicidal Activity IPOHE” value ([14]; 63 g ai/ha) was 0. For the same compound, the “Post-emerge Herbicidal Activity IPOHE” value ([14]; 250 g ai/ha) was 30, the “Post-emerge Herbicidal Activity SORHA” value ([15]; 63 g ai/ha) was 0 and the “Post-emerge Herbicidal Activity SORHA” value ([15]; 250 g ai/ha) was 0. The “Post-emerge Herbicidal Activity CHEAL” value ([16]; 63 g ai/ha) was 0, the “Post-emerge Herbicidal Activity CHEAL” value ([16]; 250 g ai/ha) was 60 and the “Post-emerge Herbicidal Activity DIGSA” value ([17]; 63 g ai/ha) was 0. For the same compound, the “Post-emerge Herbicidal Activity DIGSA” value ([17]; 250 g ai/ha) was 0, the “Post-emerge Herbicidal Activity AMARE” value ([18]; 63 g ai/ha) was 0 and the “Post-emerge Herbicidal Activity AMARE” value ([18]; 250 g ai/ha) was 30. The “Post-emerge Herbicidal Activity CASOB” value ([19]; 63 g ai/ha) was 0, the “Post-emerge Herbicidal Activity CASOB” value ([19]; 250 g ai/ha) was 0 and the “Post-emerge Herbicidal Activity ABUTH” value ([20]; 63 g ai/ha) was 0. The “Post-emerge Herbicidal Activity ABUTH” value ([20]; 250 g ai/ha) was 50, the “Post-emerge Herbicidal Activity CORN” value ([21]; 63 g ai/ha) was 0 and the “Post-emerge Herbicidal Activity CORN” value ([21]; 250 g ai/ha) was 0. For the same compound, the “Post-emerge Herbicidal Activity RICE” value ([22]; 63 g ai/ha) was 0 and the “Post-emerge Herbicidal Activity RICE” value ([22]; 250 g ai/ha) was 0.
With `C#CCOc1c(Cl)cc(F)c(N2C(=O)C3=C(CCCC3)C2=O)c1N` [Compound 8-3, N-(2-amino-4-chloro-6-fluoro-3-propargyloxyphenyl)tetrahydrophthalimide] the “Pre-emerge Herbicidal Activity AMARE” value ([1]; rate 63 g ai/ha) was 99, the “Pre-emerge Herbicidal Activity AMARE” value ([1]; rate 250 g ai/ha) was 100 and the “Pre-emerge Herbicidal Activity ECHCG” value ([2]; rate 63 g ai/ha) was 0. The “Pre-emerge Herbicidal Activity ECHCG” value ([2]; rate 250 g ai/ha) was 10, the “Pre-emerge Herbicidal Activity SETVI” value ([3]; rate 63 g ai/ha) was 95 and the “Pre-emerge Herbicidal Activity SETVI” value ([3]; rate 250 g ai/ha) was 98. The “Pre-emerge Herbicidal Activity IPOHE” value ([4]; rate 63 g ai/ha) was 30, the “Pre-emerge Herbicidal Activity IPOHE” value ([4]; rate 250 g ai/ha) was 10 and the “Pre-emerge Herbicidal Activity SORHA” value ([5]; rate 63 g ai/ha) was 20. The “Pre-emerge Herbicidal Activity SORHA” value ([5]; rate 250 g ai/ha) was 30, the “Pre-emerge Herbicidal Activity CHEAL” value ([6]; rate 63 g ai/ha) was 99 and the “Pre-emerge Herbicidal Activity CHEAL” value ([6]; rate 250 g ai/ha) was 100. For the same compound, the “Pre-emerge Herbicidal Activity DIGSA” value ([7]; rate 63 g ai/ha) was 30, the “Pre-emerge Herbicidal Activity DIGSA” value ([7]; rate 250 g ai/ha) was 60 and the “Pre-emerge Herbicidal Activity CASOB” value ([8]; rate 63 g ai/ha) was 30. For the same compound, the “Pre-emerge Herbicidal Activity CASOB” value ([8]; rate 250 g ai/ha) was 50, the “Pre-emerge Herbicidal Activity ABUTH” value ([9]; rate 63 g ai/ha) was 98 and the “Pre-emerge Herbicidal Activity ABUTH” value ([9]; rate 250 g ai/ha) was 100. The “Pre-emerge Herbicidal Activity CORN” value ([10]; rate 63 g ai/ha) was 10, the “Pre-emerge Herbicidal Activity CORN” value ([10]; rate 250 g ai/ha) was 0 and the “Pre-emerge Herbicidal Activity RICE” value ([11]; rate 63 g ai/ha) was 0. The “Pre-emerge Herbicidal Activity RICE” value ([11]; rate 250 g ai/ha) was 0, the “Post-emerge Herbicidal Activity ECHCG” value ([12]; 63 g ai/ha) was 0 and the “Post-emerge Herbicidal Activity ECHCG” value ([12]; 250 g ai/ha) was 0. For the same compound, the “Post-emerge Herbicidal Activity SETVI” value ([13]; 63 g ai/ha) was 0, the “Post-emerge Herbicidal Activity SETVI” value ([13]; 250 g ai/ha) was 70 and the “Post-emerge Herbicidal Activity IPOHE” value ([14]; 63 g ai/ha) was 40. The “Post-emerge Herbicidal Activity IPOHE” value ([14]; 250 g ai/ha) was 60, the “Post-emerge Herbicidal Activity SORHA” value ([15]; 63 g ai/ha) was 0 and the “Post-emerge Herbicidal Activity SORHA” value ([15]; 250 g ai/ha) was 20. For the same compound, the “Post-emerge Herbicidal Activity CHEAL” value ([16]; 63 g ai/ha) was 70, the “Post-emerge Herbicidal Activity CHEAL” value ([16]; 250 g ai/ha) was 90 and the “Post-emerge Herbicidal Activity DIGSA” value ([17]; 63 g ai/ha) was 0. The “Post-emerge Herbicidal Activity DIGSA” value ([17]; 250 g ai/ha) was 0, the “Post-emerge Herbicidal Activity AMARE” value ([18]; 63 g ai/ha) was 90 and the “Post-emerge Herbicidal Activity AMARE” value ([18]; 250 g ai/ha) was 100. The “Post-emerge Herbicidal Activity CASOB” value ([19]; 63 g ai/ha) was 0, the “Post-emerge Herbicidal Activity CASOB” value ([19]; 250 g ai/ha) was 50 and the “Post-emerge Herbicidal Activity ABUTH” value ([20]; 63 g ai/ha) was 90. The “Post-emerge Herbicidal Activity ABUTH” value ([20]; 250 g ai/ha) was 100, the “Post-emerge Herbicidal Activity CORN” value ([21]; 63 g ai/ha) was 0 and the “Post-emerge Herbicidal Activity CORN” value ([21]; 250 g ai/ha) was 0. The “Post-emerge Herbicidal Activity RICE” value ([22]; 63 g ai/ha) was 20 and the “Post-emerge Herbicidal Activity RICE” value ([22]; 250 g ai/ha) was 80.
